Structures are written as SMILES.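 Protocol summary: plate cells (96-well), add compound at 5 concentrations, incubate 48 h, interpolate endpoints linearly. GI50 is the concentration that inhibits growth by half.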 Calls of active or inactive are those of the source. Rule as the data show it: active = GI50 up to about 1.1 µM and inactive = higher.

Some test systems named below: ACHN; SNB-75; OVCAR-5; Malme-3M; NCI-H23; RXF 631; SK-MEL-28; KM12; LOX IMVI; BT-549; Hs-578T; MDA-MB-435; MDA-N; K562; SR; NCI/ADR-RES; CAKI-1; SK-OV-3; A498; DU-145.
Common to all, as to assay: growth of human tumour cells (NCI), 48 h

For the molecule `NC(=S)N/N=C(/CC(=O)c1ccc([N+](=O)[O-])cc1)C(=O)Nc1ncc([N+](=O)[O-])s1`, the GI50 in the assay on ACHN, in the assay on SNB-75, in the assay with OVCAR-5, in the assay on Malme-3M, in the assay on NCI-H23 and with RXF 631 was > 100 µM (inactive) throughout. Also, the values for the GI50 with SK-MEL-28, in the assay with KM12 and with LOX IMVI were > 100 µM (inactive), > 100 µM (inactive) and 61.7 µM (inactive), respectively.

As to `[O-][N+](CCO)(CCO)c1ncnc2[nH]cnc12`, the GI50 in the assay on ACHN, in the assay with BT-549, in the assay on SNB-75, in the assay on OVCAR-5, with Hs-578T and in the assay on MDA-MB-435 was > 100 µM (inactive) throughout. Moreover, the GI50 with MDA-N, in the assay on K562, with Malme-3M, in the assay on SR, in the assay with NCI-H23 and with NCI/ADR-RES was > 100 µM (inactive) throughout. For the same molecule, the GI50 in the assay with SK-MEL-28, in the assay with CAKI-1, in the assay on KM12, in the assay with SK-OV-3, in the assay on LOX IMVI and in the assay on A498 was > 100 µM (inactive) throughout. In addition, the GI50 in the assay with DU-145 was > 100 µM (inactive).

On to `O=[N+]([O-])c1ccc(Cl)cc1/C=N/C12CC3CC(CC(C3)C1)C2`, for which the GI50 with ACHN was > 87.9 µM (inactive); in the assay on BT-549 it was > 55.7 µM (inactive); in the assay on SNB-75 it was > 68.1 µM (inactive); in the assay on OVCAR-5 it was > 100 µM (inactive); in the assay with Hs-578T it was 51.8 µM (inactive); in the assay with MDA-MB-435, 47.6 µM (inactive). The GI50 in the assay on MDA-N is 52.5 µM (inactive); in the assay on K562, 4.98 µM (inactive); in the assay on Malme-3M it was 43.6 µM (inactive); in the assay on SR, 7.03 µM (inactive); in the assay with NCI-H23, 50.9 µM (inactive); with NCI/ADR-RES it was 30.1 µM (inactive). Besides, the GI50 with SK-MEL-28 was 76.9 µM (inactive); in the assay with CAKI-1, > 100 µM (inactive); with KM12, 29 µM (inactive); with SK-OV-3 it was > 100 µM (inactive); with LOX IMVI it was 19.6 µM (inactive); in the assay with A498, > 100 µM (inactive). For the same molecule, the GI50 with DU-145 was > 100 µM (inactive).

For `CC1Oc2c(c(=O)oc3ccccc23)[C@@]1(C)CC1C[C@H](C)C(=O)O1` (some centres undefined), the GI50 in the assay on ACHN was 24.4 µM (inactive); in the assay with BT-549, 30.8 µM (inactive); in the assay with SNB-75, 24.7 µM (inactive); with OVCAR-5, 83.8 µM (inactive); in the assay with Hs-578T, 30.6 µM (inactive); with MDA-MB-435 it was 21.9 µM (inactive). Besides, the GI50 is 19.9 µM (inactive) in the assay with MDA-N; 16.8 µM (inactive) in the assay on K562; 19.5 µM (inactive) in the assay with Malme-3M; > 10 µM (inactive) with SR; 19.1 µM (inactive) in the assay with NCI-H23; 32.7 µM (inactive) in the assay with NCI/ADR-RES. The GI50 in the assay on SK-MEL-28 was 18.7 µM (inactive); with CAKI-1, 19.1 µM (inactive); in the assay with KM12 it was 44.6 µM (inactive); in the assay with SK-OV-3 it was 50.5 µM (inactive); in the assay with LOX IMVI, 27.4 µM (inactive); in the assay on A498 it was > 100 µM (inactive). For the same molecule, the GI50 in the assay with DU-145 is 23.3 µM (inactive).

As for `CC12CCC(C(Br)(Br)C1=O)C2(C)C` (centres undefined), the GI50 in the assay on ACHN was 0.553 µM (active); in the assay on BT-549, 0.173 µM (active); in the assay on SNB-75, 0.711 µM (active); with OVCAR-5, 2.28 µM (inactive); in the assay on Hs-578T, 0.251 µM (active); with MDA-MB-435, 0.0942 µM (active). The GI50 in the assay with MDA-N was 0.196 µM (active); with K562 it was < 0.0202 µM (active); with Malme-3M, 0.056 µM (active); in the assay on SR it was < 0.01 µM (active); with NCI-H23 it was 0.123 µM (active); in the assay on NCI/ADR-RES, 0.131 µM (active). In addition, the GI50 is 0.826 µM (active) with SK-MEL-28; 1.8 µM (inactive) with CAKI-1; 2.77 µM (inactive) in the assay on KM12; 1.51 µM (inactive) in the assay on SK-OV-3; 0.611 µM (active) in the assay on LOX IMVI; 3.68 µM (inactive) with A498. For the same molecule, the GI50 with DU-145 is 6.08 µM (inactive).

For `CC(=O)Nc1ccc2c(c1)nc1c3ccccc3ccn21`, the GI50 in the assay with ACHN is > 100 µM (inactive); in the assay with BT-549, > 100 µM (inactive); with SNB-75, 71.9 µM (inactive); in the assay with OVCAR-5, > 100 µM (inactive); in the assay on Hs-578T, > 100 µM (inactive); in the assay on MDA-MB-435 it was > 100 µM (inactive). For the same molecule, the GI50 with MDA-N is > 100 µM (inactive); with K562, 56.1 µM (inactive); in the assay on Malme-3M it was > 100 µM (inactive); with SR, > 100 µM (inactive); in the assay with NCI-H23, > 100 µM (inactive); with NCI/ADR-RES, > 100 µM (inactive). In addition, the GI50 was > 100 µM (inactive) in the assay on SK-MEL-28; 96.4 µM (inactive) in the assay on CAKI-1; 81.1 µM (inactive) in the assay on KM12; > 100 µM (inactive) in the assay on SK-OV-3; > 100 µM (inactive) in the assay on LOX IMVI; > 100 µM (inactive) in the assay on A498. The GI50 with DU-145 was > 100 µM (inactive).

`CC(=O)Nc1ccc(Cc2ccc3nc(O)cc(C)c3c2)cc1`: the GI50 was 50.8 µM (inactive) in the assay with ACHN; > 100 µM (inactive) in the assay on BT-549; 10.3 µM (inactive) in the assay on SNB-75; > 100 µM (inactive) in the assay on OVCAR-5; 85.1 µM (inactive) in the assay with Hs-578T; > 100 µM (inactive) in the assay with MDA-MB-435. The GI50 in the assay with MDA-N was > 100 µM (inactive); with K562 it was > 100 µM (inactive); with Malme-3M it was 87.7 µM (inactive); in the assay with SR, > 100 µM (inactive); in the assay with NCI-H23, > 100 µM (inactive); in the assay with NCI/ADR-RES, > 100 µM (inactive). Besides, the GI50 in the assay with SK-MEL-28 is > 100 µM (inactive); with CAKI-1, 63.5 µM (inactive); in the assay on KM12, > 100 µM (inactive); with SK-OV-3 it was 87.3 µM (inactive); in the assay with LOX IMVI it was > 100 µM (inactive); in the assay with A498, > 100 µM (inactive). Also, the GI50 in the assay with DU-145 was 32.5 µM (inactive).

As for `CN(C)c1nc(NC23CC4CC(CC(C4)C2)C3)nc(N(C)C)n1`, the GI50 was 22.3 µM (inactive) with ACHN; 21.4 µM (inactive) in the assay on BT-549; 7.35 µM (inactive) in the assay with SNB-75; 10.2 µM (inactive) in the assay with OVCAR-5; 16.3 µM (inactive) with Hs-578T; 21.4 µM (inactive) in the assay with MDA-MB-435. For the same molecule, the GI50 with MDA-N was 8.67 µM (inactive); in the assay on K562, 2.81 µM (inactive); in the assay on Malme-3M, 33.1 µM (inactive); in the assay on SR it was 14.5 µM (inactive); in the assay on NCI-H23, 9.33 µM (inactive); in the assay on NCI/ADR-RES, 23.4 µM (inactive). Further, the GI50 in the assay on SK-MEL-28 was 22 µM (inactive); with CAKI-1, 37.6 µM (inactive); with KM12, 5.66 µM (inactive); in the assay on SK-OV-3 it was > 26.1 µM (inactive); in the assay with LOX IMVI, 3.36 µM (inactive); in the assay with A498, > 54 µM (inactive). The GI50 with DU-145 is 16.4 µM (inactive).

Take `CC(=O)CCCCn1c(=O)c2c(nc(Br)n2C)n(C)c1=O`: the GI50 with ACHN, in the assay on BT-549, in the assay on SNB-75, with OVCAR-5, with Hs-578T and with MDA-MB-435 was > 100 µM (inactive) in each case. Besides, the GI50 is > 100 µM (inactive) in the assay on MDA-N; 62.1 µM (inactive) with K562; > 100 µM (inactive) in the assay with Malme-3M; > 100 µM (inactive) in the assay with SR; > 100 µM (inactive) with NCI-H23; > 100 µM (inactive) with NCI/ADR-RES. Moreover, the GI50 is > 100 µM (inactive) in the assay on SK-MEL-28; 1.82 µM (inactive) with CAKI-1; > 100 µM (inactive) in the assay on KM12; > 100 µM (inactive) in the assay on SK-OV-3; > 100 µM (inactive) in the assay with LOX IMVI; 95.9 µM (inactive) in the assay on A498. Also, the GI50 with DU-145 was > 100 µM (inactive).

As for `COC(=O)CCNC(=O)OCc1ccccc1`, the GI50 in the assay on ACHN, with BT-549, with SNB-75, with OVCAR-5, in the assay with Hs-578T and in the assay on MDA-MB-435 was > 100 µM (inactive) in each case. The GI50 in the assay on MDA-N, with K562, in the assay with Malme-3M, in the assay with SR, with NCI-H23 and in the assay with NCI/ADR-RES was > 100 µM (inactive) each time. The GI50 in the assay on SK-MEL-28, in the assay with CAKI-1, in the assay on KM12, in the assay with SK-OV-3, in the assay on LOX IMVI and with A498 was > 100 µM (inactive) throughout. Also, the GI50 in the assay with DU-145 is > 100 µM (inactive).

In the case of `CN1CCCN(C)C1c1cc([N+](=O)[O-])ccc1O`, the GI50 with ACHN was 20.9 µM (inactive); in the assay with BT-549 it was 39.5 µM (inactive); in the assay with SNB-75, 31.1 µM (inactive); with OVCAR-5 it was > 100 µM (inactive); in the assay with Hs-578T, 26.1 µM (inactive); in the assay on MDA-MB-435 it was 31.2 µM (inactive). Moreover, the GI50 in the assay with MDA-N was 40.7 µM (inactive); in the assay with K562 it was 39 µM (inactive); in the assay on Malme-3M, 23.5 µM (inactive); in the assay with SR, 21.6 µM (inactive); with NCI-H23, 89.1 µM (inactive); in the assay on NCI/ADR-RES it was 35.6 µM (inactive). Besides, the GI50 was 27.9 µM (inactive) in the assay on SK-MEL-28; > 100 µM (inactive) with CAKI-1; 36.6 µM (inactive) with KM12; 34.1 µM (inactive) in the assay with SK-OV-3; 19.4 µM (inactive) with LOX IMVI; > 100 µM (inactive) in the assay with A498. Moreover, the GI50 in the assay on DU-145 was 36.9 µM (inactive).

The record behind these values is ChEMBL document CHEMBL1201862, “PubChem BioAssay data set” (2004).
